Measurements taken from US9023876B2, “Compounds and methods for regulating integrins” (Adhaere Pharmaceuticals, Inc., priority 2010, dated 2015).

Columns and labels:
[1] = target: T1, CD11b A-domain (αA-domain) (Homo sapiens, UniProt P11215); assay: αA-domain ligand-binding assay (GST-αA-domain to immobilized Fg); conditions: to level of activating mutant I316G
T1 construct: protein fragments spanning residues Gly^111-Gly^321 (321WT); made in house; host or cells: Escherichia coli
Text: Purification of recombinant CD11b A-Domain (.Alpha.A-Domain). Recombinant human aA-domains were constructed and purified according to published protocols. […] The aA-domain in its active conformation was generated by replacing Ile^316 with Gly (1316G [55]) using forward primer 5′-[…]-3′ (SEQ ID NO: 3) and reverse primer 5′-[…]-3′ (SEQ ID NO: 4). The insert was digested with BamHI and SmaI and ligated into pGEX-2T vector also digested with BamHI and SmaI. All constructs were confirmed by direct DNA sequencing. All recombinant proteins were expressed as glutathione S-transferase (GST) fusion proteins in Escherichia coli and purified by affinity chromatography (Glutathione-beads, Sigma) following manufacturer's instructions. Purified protein preparations were dialyzed against 20 mm Tris-HCl, pH 7.5, 150 mm NaCl (Tris-buffered saline) and subsequently concentrated using Amicon-10 columns (Millipore) and stored at −80° C. […]
Maxisorp 96-well plates were coated with Fg (1 μg/well) in 10 mM PBS, pH 7.4 overnight and blocked with 1% bovine serum albumin in PBS. […] Subsequently, the amount of bound protein was determined by incubating with anti-GST antibody conjugated to horseradish peroxidase (GE, Piscataway, N.J.) (1:2000 dilution) for 1 hr. […] Absorbance was read using Spectromax M5 spectrophotometer (Molecular Devices, Sunnyvale, Calif.). […]

integrin CD11b/CD18 = target: T2, integrin CD11b/CD18 (Homo sapiens, UniProt P11215); assay: Flow cytometry, binding of activation sensitive mAb24 to K562 CD11b/CD18 cells; format: cell-based
T2 construct: expressed in transfected cells; host or cells: K562
Method: Flow cytometric analysis of K562 cells for integrin CD11b/CD18 cell surface expression was performed using published protocols. Briefly, cells were suspended in the assay buffer (TBS containing 1 mM each of Ca^2+ and Mg^2+ ions (TBS^++) and 0.1% BSA). […] Subsequently, the cells were washed three times with the assay buffer and incubated with goat anti-mouse-APC (1 mg/ml, Invitrogen) for 20 min at 4° C. Cells were washed twice with the assay buffer and analyzed using FACSCaliber flow cytometer (BD Biosciences, CA), counting at least 10,000 events. Data was analyzed using the CellQuest software (BD Biosciences). Assays were performed in triplicate and the data shown is from one of at least three independent experiments.
To identify binding site of LA1-3, which are predicted to bind the ligand-binding αA (or α1) domain in CD11b/CD18 [33, 39, 76], we generated K562 cells stably expressing mutant integrin CD11bE320A/CD18 (K562 E320A). The highly conserved residue E320 in the linker following the activation-sensitive α7-helix in the CD11b A-domain (αA-domain) acts as an endogenous ligand of the CD18 vWFA-domain (βA- or I-domain). The E320A mutation abolishes agonist Mn^2+-ion mediated increase in ligand-binding by CD11b/CD18. However, stabilization of αA in a high-affinity conformation by additional activating mutations overcomes this deficit and induces ligand binding in the E320A mutant. […]

WT B6 mice = assay: Thioglycollate-induced peritonitis, WT mice; format: in vivo, mouse; conditions: vs vehicle
Method: Thioglycollate-induced peritonitis was performed as previously described, using 8-10 week old WT B6 and CD11b^−/− B6 mice. Leukadherin agonists were administered thirty min prior to intra peritoneal (i.p.) thioglycollate (3%) injection. LA1 and LA2 ([…] of 20 mM solution in saline) were administered intra venously (i.v.). LA3 was administered i.p. (1 mL of 20 mM solution in saline). To evaluate peritoneal neutrophil recruitment, […], the peritoneal lavage was collected and the number of emigrated neutrophils was quantified using double positive cells for GR-1 and Mac-1 staining as described.
To determine the effects of LA1-3 on inflammatory responses in vivo, we monitored their effects on neutrophil recruitment upon acute thioglycollate-induced peritonitis in mice.

mice = assay: Anti-glomerular basement membrane (anti-GBM) nephritis model; format: in vivo, mouse
Text: To determine whether CD11b/CD18 agonists have any therapeutic advantages over antagonists, we performed a head-to-head comparison between a well-characterized CD11b/CD18 antagonist (anti-CD11b antibody M1/70, [82]) and LA1 using an established mouse model of kidney disease, the anti-glomerular basement membrane (anti-GBM) nephritis. This model is characterized by neutrophil infiltration that mediates urinary protein loss, including albumin. In line with an important role for CD11b in this disease, CD11b^−/− mice and anti-CD11b mAb treated rats show decreased leukocyte infiltration and a protection from proteinuria. Here, induction of disease in mice led to peak influx of neutrophils and maximal proteinuria at day 3.

O=C(O)c1ccc(-c2ccc(/C=C3\SC(=S)N(Cc4ccccc4)C3=O)o2)cc1 [LA1]
binding of the WT αA to the immobilized ligand [1]: increased binding | binding of activation sensitive mAb24 to K562 CD11b/CD18 cells (integrin CD11b/CD18): increase | peritoneal neutrophil accumulation at 4 h and 12 h (WT B6 mice; TGC-induced peritonitis): significantly reduced | peritoneal neutrophils after 24 h (WT B6 mice; TGC-induced peritonitis): comparable numbers | reduction of peritoneal neutrophil accumulation (WT B6 mice; WT mice, given 30 min prior to thioglycollate, 4 h): 40% | number of infiltrated neutrophils (neutrophil influx) (mice): significant and maximal decrease | proteinuria (mice): significant and maximal decrease
